For nine compounds, DC50 and Dmax results are on record in patent US20260317324A1, “BIFUNCTIONAL COMPOUNDS FOR DEGRADING BRAF VIA UBIQUITIN PROTEOSOME PATHWAY” (Nurix Therapeutics, Inc., priority 2023, published 2026).

SMILES strings stand for the structures. Some results are limits rather than exact numbers.

Holding throughout (type): cell-based
The target of experiment [1] is T1, BRAF V600E (Homo sapiens, UniProt P15056, V600E).
T1 construct: endogenous C-terminal HiBiT fusion tag on BRAF V600E allele; endogenous in cells; host or cells: A375 clone 1F10 (CRISPR-Cas9 knock-in of the HiBiT tag; parental A375 from ATCC)
As to the kind of experiment: BRAF HiBiT degradation assay, C-terminal HiBiT-tagged BRAF V600E A375 cells (clone 1F10), Nano-Glo HiBiT Lytic assay. The settings on record: for Dmax: A-375. The method in brief:
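Steps: seed HiBiT-tagged A375 clone 1F10 cells; incubate 24 h, 37 °C, 5% CO2; add compound (11 half-log points from 1 μM, 0.2% DMSO); lyse with HiBiT detection reagent plus LgBiT for 10 min; read luminescence; fit % protein remaining against concentration.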
(With HiBiT, luminescence reflects the tagged protein that the partner subunit can reach.)

Experiment [2] has as its target T2, BRAF G466V (Homo sapiens, UniProt P15056, G466V).
T2 construct: Horizon Discovery (HCT-116 BRAF−/− cells); host or cells: HCT-116 BRAF−/− cells, clone 8, lentiviral transduction
As to the kind of experiment: BRAF HiBiT degradation assay, C-terminal HiBiT-tagged BRAF G466V overexpressed in HCT-116 BRAF−/− cells (clone 8), Nano-Glo HiBiT Lytic assay. The essentials: (§1)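 We quantified degradation of the C-terminally HiBiT-tagged, overexpressed mutant by lytic luminescence, normalizing to DMSO-treated cells with wild-type HCT-116 background subtracted. Dose series ran from 1 μM to 0.01 nM at 0.2% DMSO. Observed Dmax is % degraded at maximal effect.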

The target in experiment [3] is T3, BRAF G469A (Homo sapiens, UniProt P15056, G469A).
T3 construct: Horizon Discovery (HCT-116 BRAF−/− cells); host or cells: HCT-116 BRAF−/− cells, clone 34, lentiviral transduction
As to the kind of experiment: BRAF HiBiT degradation assay, C-terminal HiBiT-tagged BRAF G469A overexpressed in HCT-116 BRAF−/− cells (clone 34), Nano-Glo HiBiT Lytic assay. The essentials: as §1

Experiment [4] has as its target T4, BRAF D594G (Homo sapiens, UniProt P15056, D594G).
T4 construct: Horizon Discovery (HCT-116 BRAF−/− cells); host or cells: HCT-116 BRAF−/− cells, clone 63, lentiviral transduction
As to the kind of experiment: BRAF HiBiT degradation assay, C-terminal HiBiT-tagged BRAF D594G overexpressed in HCT-116 BRAF−/− cells (clone 63), Nano-Glo HiBiT Lytic assay. The method in brief: as §1

Setting [5] is: A375 (BRAF V600E, Class 1), DC50 at 50% degradation.
The mark [6] stands for this setting: A375 (BRAF V600E, Class 1), observed Dmax, % protein degraded relative to DMSO control.
The mark [7] stands for this setting: BRAF G466V (Class 3), HCT-116 BRAF−/− cells, DC50 at 50% degradation.
[8] abbreviates: BRAF G466V (Class 3), HCT-116 BRAF−/− cells, observed Dmax relative to DMSO control.
Where [9] appears, read: BRAF G469A (Class 2), HCT-116 BRAF−/− cells, DC50 at 50% degradation.
[10] abbreviates: BRAF G469A (Class 2), HCT-116 BRAF−/− cells, observed Dmax relative to DMSO control.
[11] abbreviates: BRAF D594G (Class 3), HCT-116 BRAF−/− cells, DC50 at 50% degradation.
[12] abbreviates: BRAF D594G (Class 3), HCT-116 BRAF−/− cells, observed Dmax relative to DMSO control.
[13] abbreviates: A375 (BRAF V600E), DC50 at 50%: fitted conc. at Y=50.
Setting [14] is: A375 (BRAF V600E), percentage protein degraded at maximal compound effect relative to DMSO.
[15] abbreviates: BRAF G466V, DC50 at 50%: fitted conc. at Y=50.
The mark [16] stands for this setting: HCT-116, BRAF G466V, percentage protein degraded at maximal compound effect relative to DMSO.
[17] abbreviates: Class 2, BRAF G469A, DC50 at 50%: fitted conc. at Y=50.
[18] abbreviates: HCT-116, Class 2, BRAF G469A, percentage protein degraded at maximal compound effect relative to DMSO.
The mark [19] stands for this setting: BRAF D594G, DC50 at 50%: fitted conc. at Y=50.
Where [20] appears, read: HCT-116, BRAF D594G, percentage protein degraded at maximal compound effect relative to DMSO.

T3 sequence (P15056 whole entry G469A): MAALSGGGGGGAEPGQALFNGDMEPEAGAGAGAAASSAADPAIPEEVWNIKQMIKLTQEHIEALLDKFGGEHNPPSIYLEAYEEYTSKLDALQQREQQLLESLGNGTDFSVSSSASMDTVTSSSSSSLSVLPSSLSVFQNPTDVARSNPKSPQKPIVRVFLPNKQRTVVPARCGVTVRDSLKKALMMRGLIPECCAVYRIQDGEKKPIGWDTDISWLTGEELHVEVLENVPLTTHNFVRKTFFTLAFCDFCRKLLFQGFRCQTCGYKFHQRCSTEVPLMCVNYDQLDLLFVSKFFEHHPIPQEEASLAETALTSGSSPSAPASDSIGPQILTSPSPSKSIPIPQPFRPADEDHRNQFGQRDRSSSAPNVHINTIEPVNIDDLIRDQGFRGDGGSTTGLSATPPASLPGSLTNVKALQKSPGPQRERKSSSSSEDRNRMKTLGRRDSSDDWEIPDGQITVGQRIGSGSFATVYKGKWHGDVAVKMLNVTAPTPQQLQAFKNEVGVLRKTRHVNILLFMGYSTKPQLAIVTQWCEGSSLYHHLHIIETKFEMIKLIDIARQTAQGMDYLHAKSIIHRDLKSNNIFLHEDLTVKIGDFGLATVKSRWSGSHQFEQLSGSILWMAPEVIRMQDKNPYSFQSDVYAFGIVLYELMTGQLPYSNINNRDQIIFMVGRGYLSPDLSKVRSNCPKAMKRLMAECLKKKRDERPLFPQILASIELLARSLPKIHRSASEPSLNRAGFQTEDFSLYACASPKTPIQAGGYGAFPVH
T2 sequence (P15056 whole entry G466V): as the sequence (P15056 whole entry G469A) above, with G466V, A469G counted along it
T1 sequence (P15056 whole entry V600E, the tested form may be a part): as the sequence (P15056 whole entry G469A) above, with A469G, V600E counted along it
T4 sequence (P15056 whole entry D594G): as the sequence (P15056 whole entry G469A) above, with A469G, D594G counted along it

The term DC50 denotes the midpoint of the concentration-degradation curve. A lower DC50 goes with a more potent degrader. Usually Dmax stands for the greatest extent of degradation seen. Low values mean shallow degradation, high ones deep degradation. Take `C[C@@H]1CN(c2ccc(-n3cc(-c4cc(Cl)cc(NS(=O)(=O)N5CC[C@@H](F)C5)c4F)c(-c4ccncc4)n3)cc2)CCN1CC1CCN(c2ccc(C3CCC(=O)NC3=O)cn2)CC1` (mixture of isomers) [Compound 318, (3R)—N-[5-chloro-3-(1-{4-[(3R)-4-[(1-{5-[(3RS)-2,6-dioxopiperidin-3-yl]pyridin-2-yl}piperidin-4-yl)methyl]-3-methylpiperazin-1-yl]phenyl}-3-(pyridin-4-yl)-1H-pyrazol-4-yl)-2-fluorophenyl]-3-fluoropyrrolidine-1-sulfonamide]: the DC50 in experiment [1] (setting [5]), in experiment [2] (setting [7]), in experiment [3] (setting [9]) and in experiment [4] (setting [11]) was less than 10 nM throughout. Moreover, the Dmax in experiment [1] (setting [6]), in experiment [2] (setting [8]), in experiment [3] (setting [10]) and in experiment [4] (setting [12]) was greater than 70% in each case.

In the case of `O=C1CCC(c2ccc(N3CCC(CN4CCN(c5ccc(-n6cc(-c7cc(Cl)cc(NS(=O)(=O)N8CCCC8)c7F)c(-c7ccncc7)n6)cc5)CC4)CC3)nc2)C(=O)N1` (racemic) [Compound 265, Rac-(R)—N-(5-chloro-3-(1-(4-(4-((1-(5-(2,6-dioxopiperidin-3-yl)pyridin-2-yl)piperidin-4-yl)methyl)piperazin-1-yl)phenyl)-3-(pyridin-4-yl)-1H-pyrazol-4-yl)-2-fluorophenyl)pyrrolidine-1-sulfonamide], the DC50 in experiment [1] (setting [5]), in experiment [2] (setting [7]), in experiment [3] (setting [9]) and in experiment [4] (setting [11]) was less than 10 nM in each case. Moreover, the Dmax in experiment [1] (setting [6]), in experiment [2] (setting [8]), in experiment [3] (setting [10]) and in experiment [4] (setting [12]) was greater than 70% throughout.

`CCCS(=O)(=O)Nc1cccc(-c2nc(C3CCN(C(=O)CN4CCC5(CC4)CN(c4ccc6c(c4)C(=O)N(C4CCC(=O)NC4=O)C6=O)C5)CC3)sc2-c2ccnc(NC)n2)c1F` (racemic) [Compound 219, Rac-N-[3-(2-{1-[2-(2-{2-[(3R)-2,6-dioxopiperidin-3-yl]-1,3-dioxo-2,3-dihydro-1H-isoindol-5-yl}-2,7-diazaspiro[3.5]nonan-7-yl)acetyl]piperidin-4-yl}-5-[2-(methylamino)pyrimidin-4-yl]-1,3-thiazol-4-yl)-2-fluorophenyl]propane-1-sulfonamide]: the DC50 was less than 10 nM in experiment [1] (setting [13]), less than 10 nM in experiment [2] (setting [15]), greater than 500 nM in experiment [3] (setting [17]) and greater than 500 nM in experiment [4] (setting [19]). For the same compound, the Dmax in experiment [1] (setting [14]) is greater than 70%; in experiment [2] (setting [16]), 30 to 70%; in experiment [3] (setting [18]) it was 30 to 70%; in experiment [4] (setting [20]), 30 to 70%.

For `CCCS(=O)(=O)Nc1cccc(-c2nc(C(C)(C)C)sc2-c2ccnc(Nc3cnn(CC4CCN(C(=O)[C@@H]5CCN(c6ccc(C7CCC(=O)NC7=O)cn6)C5)CC4)c3)n2)c1F` (mixture of isomers) [Compound 114, N-{3-[2-tert-butyl-5-(2-{[1-({1-[(3R)-1-{5-[(3RS)-2,6-dioxopiperidin-3-yl]pyridin-2-yl}pyrrolidine-3-carbonyl]piperidin-4-yl}methyl)-1H-pyrazol-4-yl]amino}pyrimidin-4-yl)-1,3-thiazol-4-yl]-2-fluorophenyl}propane-1-sulfonamide], the DC50 in experiment [1] (setting [13]) is 10 to 50 nM; in experiment [2] (setting [15]), greater than 500 nM; in experiment [3] (setting [17]), greater than 500 nM; in experiment [4] (setting [19]), greater than 500 nM. Moreover, the Dmax was greater than 70% in experiment [1] (setting [14]), less than 30% in experiment [2] (setting [16]), less than 30% in experiment [3] (setting [18]) and 30 to 70% in experiment [4] (setting [20]).

`CCCS(=O)(=O)Nc1cccc(-c2nc(C3CCN(C(=O)C4(C)CCN(C(=O)C5CCN(c6ccc(C7CCC(=O)NC7=O)cn6)CC5)CC4)CC3)sc2-c2ccncn2)c1F` (racemic) [Compound 181, Rac-N-[3-(2-{1-[1-(1-{5-[(3R)-2,6-dioxopiperidin-3-yl]pyridin-2-yl}piperidine-4-carbonyl)-4-methylpiperidine-4-carbonyl]piperidin-4-yl}-5-(pyrimidin-4-yl)-1,3-thiazol-4-yl)-2-fluorophenyl]propane-1-sulfonamide]: the DC50 in experiment [1] (setting [13]) was less than 10 nM; in experiment [2] (setting [15]), less than 10 nM; in experiment [3] (setting [17]), greater than 500 nM; in experiment [4] (setting [19]), less than 10 nM. Moreover, the Dmax in experiment [1] (setting [14]) is greater than 70%; in experiment [2] (setting [16]) it was greater than 70%; in experiment [3] (setting [18]) it was 30 to 70%; in experiment [4] (setting [20]), greater than 70%.

`O=C1CC[C@H](c2ccc(N3CCC(CN4CCN(c5ccc(-n6cc(-c7cc(Cl)cc(NS(=O)(=O)N8CC(F)C8)c7F)c(-c7ccncc7)n6)cc5)CC4)CC3)nc2)C(=O)N1` [Compound 331, N-{5-chloro-3-[1-(4-{4-[(1-{5-[(3R)-2,6-dioxopiperidin-3-yl]pyridin-2-yl}piperidin-4-yl)methyl]piperazin-1-yl}phenyl)-3-(pyridin-4-yl)-1H-pyrazol-4-yl]-2-fluorophenyl}-3-fluoroazetidine-1-sulfonamide]: the DC50 in experiment [1] (setting [5]), in experiment [2] (setting [7]), in experiment [3] (setting [9]) and in experiment [4] (setting [11]) was less than 10 nM each time. The Dmax in experiment [1] (setting [6]) was greater than 70%; in experiment [2] (setting [8]), greater than 70%; in experiment [3] (setting [10]), greater than 70%; in experiment [4] (setting [12]), 30 to 70%.

For `CCCS(=O)(=O)Nc1cccc(-c2nc(C(C)(C)C)sc2-c2ccnc(Nc3cccc(C4CCN(CC5CCN(c6ccc7c(=O)n(C8CCC(=O)NC8=O)ccc7c6)CC5)CC4)c3)n2)c1F` (racemic) [Compound 76, Rac-N-[3-(2-tert-butyl-5-{2-[(3-{1-[(1-{2-[(3R)-2,6-dioxopiperidin-3-yl]-1-oxo-1,2-dihydroisoquinolin-6-yl}piperidin-4-yl)methyl]piperidin-4-yl}phenyl)amino]pyrimidin-4-yl}-1,3-thiazol-4-yl)-2-fluorophenyl]propane-1-sulfonamide], the DC50 is 10 to 50 nM in experiment [1] (setting [13]), greater than 500 nM in experiment [2] (setting [15]), greater than 500 nM in experiment [3] (setting [17]) and greater than 500 nM in experiment [4] (setting [19]). In addition, the Dmax in experiment [1] (setting [14]) was 30 to 70%; in experiment [2] (setting [16]), less than 30%; in experiment [3] (setting [18]) it was less than 30%; in experiment [4] (setting [20]), less than 30%.

In the case of `CCCS(=O)(=O)Nc1cccc(-c2nc(C(C)(C)C)sc2-c2ccnc(Nc3cnn(C4CCN(C(=O)[C@H]5CC[C@H](Oc6ccc(C7CCC(=O)NC7=O)cc6)CC5)CC4)c3)n2)c1F` (mixture of isomers) [Compound 110, N-[3-(2-tert-butyl-5-{2-[(1-{1-[(1r,4r)-4-{4-[(3RS)-2,6-dioxopiperidin-3-yl]phenoxy}cyclohexanecarbonyl]piperidin-4-yl}-1H-pyrazol-4-yl)amino]pyrimidin-4-yl}-1,3-thiazol-4-yl)-2-fluorophenyl]propane-1-sulfonamide], the DC50 in experiment [1] (setting [13]) was less than 10 nM; in experiment [2] (setting [15]), greater than 500 nM; in experiment [3] (setting [17]), greater than 500 nM; in experiment [4] (setting [19]), greater than 500 nM. Moreover, the Dmax is 30 to 70% in experiment [1] (setting [14]), less than 30% in experiment [2] (setting [16]), less than 30% in experiment [3] (setting [18]) and less than 30% in experiment [4] (setting [20]).

As for `O=C1CC[C@H](c2ccc(N3CCC(CN4CCN(c5ccc(-n6cc(-c7cc(F)cc(NS(=O)(=O)N8CCCC8)c7F)c(-c7ccncc7)n6)cc5)CC4)CC3)cc2)C(=O)N1` [Compound 299, N-{3-[1-(4-{4-[(1-{4-[(3R)-2,6-dioxopiperidin-3-yl]phenyl}piperidin-4-yl)methyl]piperazin-1-yl}phenyl)-3-(pyridin-4-yl)-1H-pyrazol-4-yl]-2,5-difluorophenyl}pyrrolidine-1-sulfonamide], the DC50 in experiment [1] (setting [5]) was less than 10 nM; in experiment [2] (setting [7]), less than 10 nM; in experiment [3] (setting [9]), 10 to 50 nM; in experiment [4] (setting [11]), less than 10 nM. In addition, the Dmax is greater than 70% in experiment [1] (setting [6]), greater than 70% in experiment [2] (setting [8]), 30 to 70% in experiment [3] (setting [10]) and 30 to 70% in experiment [4] (setting [12]).
